≈ marks a conversion by molar mass, not a printed value.
Legend:
E. faecium OC3312 = assay: NCCLS broth microdilution MIC, E. faecium OC3312; type: cell-based; conditions: Enterococcus faecium, cation adjusted Mueller-Hinton broth, 35° C., 16-20 hours
Method: (§1) Minimal inhibitory concentration (MIC) has been an indicator of in vitro antibacterial activity widely used in the art. The in vitro antimicrobial activity of the compounds was determined by the microdilution broth method following the test method from the National Committee for Laboratory Standards (NCCLS). This method is described in the NCCLS Document M7-A4, Vol.17, No.2, "Methods for Dilution Antimicrobial Susceptibility Test for Bacteria that Grow Aerobically-Fourth Edition", which is incorporated herein by reference.
(§2) In this method two-fold serial dilutions of drug in cation adjusted Mueller-Hinton broth are added to wells in microdilution trays. The test organisms are prepared by adjusting the turbidity of actively growing broth cultures so that the final concentration of test organism after it is added to the wells is approximately 5×10^4 CFU/well.
(§3) Following inoculation of the microdilution trays, the trays are incubated at 35° C. for 16-20 hours and then read. […] The amount of growth in the wells containing the test compound is compared with the amount of growth in the growth-control wells (no test compound) used in each tray. As set forth in Table 1, compounds of the present invention were tested against a variety of Gram positive and Gram negative pathogenic bacteria resulting in a range of activities, from 1 to ≥128 μg/mL depending on the organism tested.

MRSA OC2878 = assay: NCCLS broth microdilution MIC, MRSA OC2878; type: cell-based, methicillin-resistant Staphylococcus aureus; conditions: Staphylococcus aureus, cation adjusted Mueller-Hinton broth, 35° C., 16-20 hours
Method: as §1, §2, §3

S. aureus OC4172 = assay: NCCLS broth microdilution MIC, S. aureus OC4172; type: cell-based; conditions: Staphylococcus aureus, cation adjusted Mueller-Hinton broth, 35° C., 16-20 hours
Method: as §1, §2, §3

SMILES	MIC (E. faecium OC3312) [µg/mL]	MIC (MRSA OC2878) [µg/mL]	MIC (S. aureus OC4172) [µg/mL]
CN(C)C(=NC#N)NC[C@H]1CN(c2ccc(N3CCOCC3)c(F)c2)C(=O)O1 [Cmpd 4, N-Cyano-N'-[[(5S)-3-[3-fluoro-4-(4-morpholinyl)phenyl]-2-oxo-5-oxazolidinyl]methyl]-N", N"-dimethylguanidine]	64 (≈ 164 µM)	32 (≈ 82 µM)	16 (≈ 41 µM)
CCCC(=NC#N)NC[C@H]1CN(c2ccc(N3CCOCC3)c(F)c2)C(=O)O1 [Cmpd 5, N-Cyano-N'-[[(5S)-3-[3-fluoro-4-(4-morpholinyl)phenyl]-2-oxo-5-oxazolidinyl]methyl]butyrimidate]	8 (≈ 20.5 µM)	8 (≈ 20.5 µM)	8 (≈ 20.5 µM)
CN=C(NC#N)NC[C@H]1CN(c2ccc(N3CCOCC3)c(F)c2)C(=O)O1 [Cmpd 1, N-Cyano-N'-[[(5S)-3-[3-fluoro-4-(4-morpholinyl)phenyl]-2-oxo-5-oxazolidinyl]methyl]-N"-methylguanidine]	32 (≈ 85 µM)	32 (≈ 85 µM)	16 (≈ 42.5 µM)
CC(=O)N=C(C)NC[C@H]1CN(c2ccc(N3CCOCC3)c(F)c2)C(=O)O1 [Cmpd 7, N-Acetyl-N'-[[(5S)-3-[3-fluoro-4-(4-morpholinyl)phenyl]-2-oxo-5-oxazolidinyl]methyl]acetimidate]	64 (≈ 169 µM)	16 (≈ 42.3 µM)	32 (≈ 84.6 µM)
CSC(=NC#N)NCC1CN(c2ccc(N3CCOCC3)c(F)c2)C(=O)O1 (stereo in doubt) [Cmpd 3, N-Cyano-N'-[[(5S)-3-[3-fluoro-4-(4-morpholinyl)phenyl]-2-oxo-5-oxazolidinyl]methyl]carbamimidothioic acid, methyl ester]	8 (≈ 20.3 µM)	4 (≈ 10.2 µM)	4 (≈ 10.2 µM)
CC(=N)NC[C@H]1CN(c2ccc(N3CCOCC3)c(F)c2)C(=O)O1 [Cmpd 6]	> 128	128 (≈ 381 µM)	> 128
CC(=NC[C@H]1CN(c2ccc(N3CCOCC3)c(F)c2)C(=O)O1)NC#N [Cmpd 2, N-Cyano-N'-[[(5S)-3-[3-fluoro-4-(4-morpholinyl)phenyl]-2-oxo-5-oxazolidinyl]methyl]ethanimidamide]	2 (≈ 5.53 µM)	1 (≈ 2.77 µM)	2 (≈ 5.53 µM)

Source: patent US6297242A, “N-substituted amidine and guanidine oxazolidinone antibacterials and methods of use thereof” (Ortho-McNeil Pharmaceutical, Inc., priority 2000, dated 2001)
